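Where inhibition never reached the appropriate level, the endpoint shown equals the highest concentration tested. Otherwise, values were interpolated linearly from a five-concentration, 48-hour dose response in 96-well plates. GI50 = concentration required for 50% inhibition of growth.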 Activity calls are given as the source filed them. Cut-off read from the data, not from the text of the source: active = GI50 up to about 1.1 µM and inactive = higher.
Tests used:
Assay in all cases: inhibition of tumour cell growth, NCI panel, 48 h
[1] = test system: MDA-MB-231
[2] = test system: HCC 2998
[3] = test system: PC-3
[4] = test system: DU-145
[5] = test system: CAKI-1
[6] = test system: MCF7
[7] = test system: NCI-H226
[8] = test system: SK-MEL-2
[9] = test system: OVCAR-5
[10] = test system: HOP-92
[11] = test system: 786-0
[12] = test system: SR
[13] = test system: MDA-MB-435
[14] = test system: Hs-578T
[15] = test system: T47D
[16] = test system: NCI/ADR-RES
[17] = test system: COLO 205
[18] = test system: OVCAR-4
[19] = test system: MDA-N

SMILES | GI50 [1] | GI50 [2] | GI50 [3] | GI50 [4] | GI50 [5] | GI50 [6] | GI50 [7] | GI50 [8] | GI50 [9] | GI50 [10] | GI50 [11] | GI50 [12] | GI50 [13] | GI50 [14] | GI50 [15] | GI50 [16] | GI50 [17] | GI50 [18] | GI50 [19]
CN(C)c1nc(N)nc(CS)n1 | 45.6 µM (inactive) | > 100 µM (inactive) | 54.3 µM (inactive) | > 100 µM (inactive) | > 100 µM (inactive) | > 100 µM (inactive) | > 100 µM (inactive) | 36.2 µM (inactive) | > 100 µM (inactive) | > 100 µM (inactive) | > 100 µM (inactive) | 37.2 µM (inactive) | > 100 µM (inactive) | > 100 µM (inactive) | > 100 µM (inactive) | > 100 µM (inactive) | > 100 µM (inactive) | 80.7 µM (inactive) | –
C=CCOCC1C2CCC3(OCCO3)C21 (stereo not drawn) | > 100 µM (inactive) | > 100 µM (inactive) | > 100 µM (inactive) | > 100 µM (inactive) | 30.4 µM (inactive) | > 100 µM (inactive) | > 100 µM (inactive) | > 100 µM (inactive) | > 100 µM (inactive) | > 100 µM (inactive) | > 100 µM (inactive) | > 100 µM (inactive) | > 100 µM (inactive) | – | – | > 100 µM (inactive) | > 100 µM (inactive) | > 100 µM (inactive) | > 100 µM (inactive)
BrCC[N+]12CCCN1CCC2 | 17.5 µM (inactive) | 22.3 µM (inactive) | 17.1 µM (inactive) | 45.3 µM (inactive) | 1.03 µM (active) | – | 33.2 µM (inactive) | 20.5 µM (inactive) | 21.5 µM (inactive) | 5.22 µM (inactive) | 9.06 µM (inactive) | 1.68 µM (inactive) | – | 0.692 µM (active) | 9.93 µM (inactive) | – | 4.14 µM (inactive) | 4.23 µM (inactive) | 16.1 µM (inactive)
CCCCOC(=O)NC(Nc1ccc(S(N)(=O)=O)cc1)(C(F)(F)F)C(F)(F)F | > 100 µM (inactive) | > 100 µM (inactive) | – | > 100 µM (inactive) | – | > 100 µM (inactive) | > 100 µM (inactive) | > 100 µM (inactive) | > 100 µM (inactive) | – | – | > 100 µM (inactive) | > 100 µM (inactive) | > 100 µM (inactive) | > 100 µM (inactive) | – | – | – | –
CCOC(=O)/C(=N/Nc1ccccc1)N1C(=S)N(C)N=C(C)C=C1S | 43.9 µM (inactive) | > 100 µM (inactive) | – | > 100 µM (inactive) | > 100 µM (inactive) | > 100 µM (inactive) | – | > 100 µM (inactive) | > 100 µM (inactive) | 47.8 µM (inactive) | – | > 100 µM (inactive) | > 100 µM (inactive) | 70 µM (inactive) | 44.2 µM (inactive) | > 100 µM (inactive) | > 100 µM (inactive) | > 100 µM (inactive) | –
O=CC1C(Cl)=Nc2nc3ccccc3n2C1c1ccc([N+](=O)[O-])cc1 (stereo not drawn) | 14.9 µM (inactive) | 14 µM (inactive) | 4.89 µM (inactive) | 4.74 µM (inactive) | 3.09 µM (inactive) | 3.97 µM (inactive) | 3.33 µM (inactive) | 6.03 µM (inactive) | 21.1 µM (inactive) | 5.45 µM (inactive) | 4.3 µM (inactive) | 2.16 µM (inactive) | 4.81 µM (inactive) | 57.7 µM (inactive) | 1.57 µM (inactive) | 40.5 µM (inactive) | 3.14 µM (inactive) | 13.6 µM (inactive) | –
COC[C@H](C)/N=C/N1CCc2ccccc2C1(Cc1ccccc1)Cc1ccccc1 | – | – | – | – | 16.3 µM (inactive) | – | 18.5 µM (inactive) | 10.6 µM (inactive) | – | 15.6 µM (inactive) | 16.5 µM (inactive) | 11.6 µM (inactive) | – | – | – | – | 13.5 µM (inactive) | 12.8 µM (inactive) | –
COc1ccc2cc(/C=N\NC(=O)Nc3cccc4ccccc34)ccc2c1 | 27 µM (inactive) | > 100 µM (inactive) | 33.7 µM (inactive) | 58.2 µM (inactive) | 23.8 µM (inactive) | 20.3 µM (inactive) | 28.2 µM (inactive) | 25.7 µM (inactive) | 69.5 µM (inactive) | – | 12.9 µM (inactive) | 16.1 µM (inactive) | 50.6 µM (inactive) | 30.5 µM (inactive) | – | > 100 µM (inactive) | 46.7 µM (inactive) | 14.5 µM (inactive) | 42 µM (inactive)
CC(C)OP(=O)(OC(C)C)c1ccc2c(c1)OCCOCCOCCOCCO2 | > 100 µM (inactive) | > 100 µM (inactive) | > 100 µM (inactive) | > 100 µM (inactive) | > 100 µM (inactive) | > 100 µM (inactive) | > 100 µM (inactive) | – | – | – | > 100 µM (inactive) | > 100 µM (inactive) | > 100 µM (inactive) | > 100 µM (inactive) | > 100 µM (inactive) | – | > 100 µM (inactive) | – | > 100 µM (inactive)
OC1CSCCSCCCSCCSC1 | > 100 µM (inactive) | > 100 µM (inactive) | > 100 µM (inactive) | > 100 µM (inactive) | > 100 µM (inactive) | > 100 µM (inactive) | > 100 µM (inactive) | > 100 µM (inactive) | > 100 µM (inactive) | > 100 µM (inactive) | > 100 µM (inactive) | – | > 100 µM (inactive) | > 100 µM (inactive) | > 100 µM (inactive) | – | > 100 µM (inactive) | > 100 µM (inactive) | > 100 µM (inactive)
Cc1[nH]nc(-c2ccon2)c1N=O | 16.8 µM (inactive) | – | 25.3 µM (inactive) | 21.4 µM (inactive) | 25.8 µM (inactive) | 22.9 µM (inactive) | 14.6 µM (inactive) | 34.3 µM (inactive) | 19.3 µM (inactive) | 14.2 µM (inactive) | 20.4 µM (inactive) | 10 µM (inactive) | 20.5 µM (inactive) | 26.9 µM (inactive) | 25.1 µM (inactive) | 19.8 µM (inactive) | 19.9 µM (inactive) | 17.5 µM (inactive) | –
COc1cccc(Nc2nc(-c3cccs3)nc3ccc(Br)cc23)c1 | 37.8 µM (inactive) | – | 27.4 µM (inactive) | > 100 µM (inactive) | 33.7 µM (inactive) | 12.7 µM (inactive) | 78 µM (inactive) | > 100 µM (inactive) | 95.3 µM (inactive) | 31.4 µM (inactive) | 33.3 µM (inactive) | 1.48 µM (inactive) | 76 µM (inactive) | > 100 µM (inactive) | > 100 µM (inactive) | 40.5 µM (inactive) | > 100 µM (inactive) | – | –
COc1cccc(C2SC(=N)Nc3c2c(C)nn3C(=O)Cc2ccccc2)c1 (stereo not drawn) | > 100 µM (inactive) | > 100 µM (inactive) | > 100 µM (inactive) | > 100 µM (inactive) | > 100 µM (inactive) | 39.8 µM (inactive) | > 100 µM (inactive) | – | – | – | > 100 µM (inactive) | > 100 µM (inactive) | > 100 µM (inactive) | > 100 µM (inactive) | > 100 µM (inactive) | – | > 100 µM (inactive) | – | > 100 µM (inactive)
CC(C(=O)COCc1ccccc1)P1(=O)OC(C)(C)CN1C(C)(C)C (stereo not drawn) | – | > 100 µM (inactive) | – | > 100 µM (inactive) | > 100 µM (inactive) | > 100 µM (inactive) | > 100 µM (inactive) | – | 49.4 µM (inactive) | > 100 µM (inactive) | > 100 µM (inactive) | – | > 100 µM (inactive) | > 100 µM (inactive) | > 100 µM (inactive) | > 100 µM (inactive) | > 100 µM (inactive) | 28.8 µM (inactive) | > 100 µM (inactive)
c1ccc(C(NCC2CCO2)(c2ccccc2)c2ccccc2)cc1 (stereo not drawn) | 28.3 µM (inactive) | 16.9 µM (inactive) | 15.8 µM (inactive) | 27.7 µM (inactive) | 23.9 µM (inactive) | 16.8 µM (inactive) | 11.3 µM (inactive) | 21.1 µM (inactive) | 15.7 µM (inactive) | 13.9 µM (inactive) | 20 µM (inactive) | 36.3 µM (inactive) | 21.1 µM (inactive) | – | – | 14.1 µM (inactive) | 39.1 µM (inactive) | 16.2 µM (inactive) | 24.3 µM (inactive)
CC1(C)C[C@H]2C=C(C=O)[C@]34C[C@]3(C(=O)OC4O)[C@H]2C1 (stereo partly drawn) | 1.48 µM (inactive) | 2.95 µM (inactive) | 2.84 µM (inactive) | 2.22 µM (inactive) | 1.59 µM (inactive) | 1.38 µM (inactive) | 6.61 µM (inactive) | 1.72 µM (inactive) | 2.37 µM (inactive) | 2.17 µM (inactive) | – | 2.56 µM (inactive) | 2.35 µM (inactive) | 3.21 µM (inactive) | 0.459 µM (active) | – | 0.374 µM (active) | 2.55 µM (inactive) | 1.37 µM (inactive)
CC(=O)N1OC(C)CC1Nc1ccc(Br)cc1 (stereo not drawn) | – | 3.05 µM (inactive) | 1.04 µM (active) | 0.493 µM (active) | – | 21.5 µM (inactive) | 4.39 µM (inactive) | 2.62 µM (inactive) | 96.2 µM (inactive) | > 100 µM (inactive) | > 100 µM (inactive) | 1.42 µM (inactive) | 0.577 µM (active) | > 100 µM (inactive) | 1.34 µM (inactive) | > 100 µM (inactive) | – | – | 0.252 µM (active)
C1CCC(OCc2nnn3c2CCC3)OC1 (stereo not drawn) | – | > 100 µM (inactive) | – | – | – | – | – | > 100 µM (inactive) | > 100 µM (inactive) | > 100 µM (inactive) | – | > 100 µM (inactive) | – | – | – | – | – | > 100 µM (inactive) | –
